Tests used:
PTP1B = PTP1B (Homo sapiens (Human), UniProt P18031); test: Experiment of PTP1B inhibition (p-NPP dephosphorylation); assay type: biochemical; conditions: 2 mM p-NPP substrate, 30° C., 30 minutes
Method in brief: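 PTP1B reacted with 2 mM p-NPP in 50 mM citrate pH 6.0, 0.1 M NaCl, 1 mM EDTA, 1 mM DTT plus compound at various concentrations, 30 °C for 30 min. Reaction stopped with 1 N NaOH; p-nitrophenol absorbance gives IC50.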

db/db mice = test: Anti-diabetic effects for db/db mice (glycosylated hemoglobin); assay type: in vivo, C57BLKS/J-db/db mice
Experimental: 5-week-old male C57BLKS/J-db/db mice (Central Lab. Animal Inc.) were purchased and acclimatized for 2 weeks, and then used in this experiment. Samples were exactly taken from the compounds prepared in Examples 4 and 15 of the present invention (Compounds 5 and 16) according to the administration dose and put into Falcon tubes, a 0.5% methyl cellulose aqueous solution stored refrigerated was placed at room temperature to allow the excipients to be warmed at room temperature, 16 ml of each of the excipients was added to a 50 ml Falcon tube, and a vortex mixer was used to primarily mix the ingredients in a soft manner, and then a suspension was obtained and homogenized by treating the sample for 3 minutes using a homogenizer (30,000 rpm, CPT-1600E, Kinemtica, Switzerland), and then ultrasonically treated for 30 minutes. The sample thus prepared was administered through oral gavage using a disposable plastic syringe equipped with a sonde once daily for 42 days (6 weeks).
The glycosylated hemoglobin (HbA1c) was measured while the db/db mice were bred. The gyclosylated hemoglobin was measured at 2 days prior to group separation, 4 weeks after administration, and 6 weeks after administration, and was measured by fasting the mice for 4 hours on the measurement date, collecting blood from the caudal vein before each material was administered, and using a device for measuring glycosylated hemoglobin (SD A1cCare, SD Biosensor, Inc., Korea).

C2C12 cells = test: Glucose uptake (2-NBDG) in C2C12 cells; assay type: cell-based; conditions: compared with Rosiglytazone and Metformin
Experimental: In terms of capacity of glucose uptake in C2C12 cells, the compound (Compound 15) of Example 14 of the present invention was compared with the existing Rosiglytazone and Metformin which were used or are currently used as a therapeutic agent for diabetes. The C2C12 cell was cultured in a Dulbecco's modified eagle medium (DMEM) supplemented with 10% fetal bovine serum (FBS), penicillin (120 unit/mL), and streptomycin (75 μg/mL), the medium used for differentiation was a DMEM medium supplemented with 1% horse serum, and the C2C12 cell was cultured in the DMEM medium for 4 days. The cell thus cultured was treated with Compound 15 in a low-glucose, serum-free medium supplemented with 2-[N-(7-nitrobenz-2-oxa-1,3-diazol-4-yl)amino]-2-deoxy-d-glucose (2-NBDG) for 24 hours to measure the glucose absorbance at an excitation wavelength of 485 nm and an emission wavelength of 535 nm using a fluorescent detector. The same experiment was performed on Rosiglytazone and Metformin.

Sequence of PTP1B (P18031 whole entry, species assumed): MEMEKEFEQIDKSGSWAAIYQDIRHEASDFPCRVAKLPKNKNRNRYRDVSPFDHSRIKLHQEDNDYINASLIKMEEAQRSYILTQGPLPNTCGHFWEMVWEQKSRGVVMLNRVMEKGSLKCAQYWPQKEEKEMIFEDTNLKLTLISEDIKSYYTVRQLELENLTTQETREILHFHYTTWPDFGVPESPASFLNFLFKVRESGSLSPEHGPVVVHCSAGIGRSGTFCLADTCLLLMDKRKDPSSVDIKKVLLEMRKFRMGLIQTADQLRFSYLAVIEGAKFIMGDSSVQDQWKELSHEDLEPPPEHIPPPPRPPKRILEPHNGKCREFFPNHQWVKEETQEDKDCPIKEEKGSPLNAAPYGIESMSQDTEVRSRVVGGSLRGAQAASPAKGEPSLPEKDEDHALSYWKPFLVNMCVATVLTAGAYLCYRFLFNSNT

Row | SMILES | IC50 (PTP1B) [µM] | HbA1c (%) 4 weeks (db/db mice; 4 weeks after administration, 300 mg/kg oral once daily) [%] | HbA1c (%) 6 weeks (db/db mice; 6 weeks after administration, 300 mg/kg oral once daily) [%] | HbA1c (%) Before administration (db/db mice; before administration, 300 mg/kg group) [%] | capacity of promoting glucose uptake, in words (C2C12 cells)
1 | CCCc1ccc(C2COc3c(ccc4c3CCC(C)(C)O4)C2)c(O)c1 (stereo not drawn) [Compound 5, 3-(2-hydroxy-4-propylphenyl)-8,8-dimethyl-2,3,4,8,9,10-hexahydropyrano [2,3-f] chromene] | 2.8 | 5.3 | 5.7 | 4.7 | –
2 | CCOc1ccc(C2COc3c(ccc4c3CCC(C)(C)O4)C2)c(O)c1 (stereo not drawn) [Compound 15, 3-(2-hydroxy-4-ethoxyphenyl)-8,8-dimethyl-2,3,4,8,9,10-hexahydropyrano [2,3-f] chromene] | 8.6 | – | – | – | better than that of the existing therapeutic agent for diabetes
